Experimental data as given in patent publication US11926583B2, “Stabilized 1, 25-dihydroxyvitamin D2 and method of making same” (CYTOCHROMA INC., priority 2008, dated 2024).

Experiment: Accelerated stability testing at 60° C., purity by HPLC
Assay type: physicochemical
Details: for Purity (absolute %) / Purity (% of initial amount): At 60° C.
Experimental: The HPLC analysis can suitably follow the parameters in Table 2 below.
Samples of stabilized 1,25-dihydroxyvitamin D2 according to Example 1 and commercially-obtained 1,25-dihydroxyvitamin D2 (SAFC, Madison, Wis. USA) made by crystallization from methyl formate were placed in a 60° C. oven in several 2 ml amber vials with Teflon-lined caps. Samples were taken out at different time points and purity was checked by HPLC according to Example 1. The results are presented in Tables 3 and 4 below and in FIGS. 1 and 2. […] The stabilized material prepared according to the Example 1 will clearly have advantage when any heat is required during formulation.

SMILES	Purity (absolute %) (0 h) [%]	Purity (% of initial amount) (4 h) [%]	Purity (absolute %) (4 h) [%]	Purity (% of initial amount) (8 h) [%]	Purity (absolute %) (8 h) [%]	Purity (% of initial amount) (16 h) [%]	Purity (absolute %) (16 h) [%]	Purity (% of initial amount) (24 h) [%]	Purity (absolute %) (24 h) [%]	Purity (% of initial amount) (48 h) [%]	Purity (absolute %) (48 h) [%]	Purity (% of initial amount) (72 h) [%]	Purity (absolute %) (72 h) [%]	Purity (% of initial amount) (Initial %) [%]	Stability compared to commercially available material containing residual methyl formate (60° C., up to 72 hours)
C=C1/C(=C\C=C2/CCC[C@]3(C)[C@@H]([C@H](C)/C=C/[C@H](C)C(C)(C)O)CC[C@@H]23)C[C@@H](O)C[C@@H]1O [Commercial, 1,25-dihydroxyvitamin D2]	96.80	98.33	95.18	98.12	94.98	97.82	94.69	97.09	93.98	96.97	93.86	96.92	93.82	100	
C=C1/C(=C\C=C2/CCC[C@]3(C)[C@@H]([C@H](C)/C=C/[C@H](C)C(C)(C)O)CC[C@@H]23)C[C@@H](O)C[C@@H]1O [Example 1, 1,25-dihydroxyvitamin D2]	99.40	99.98	99.38	100	99.42	99.93	99.33	100	99.42	99.90	99.31	99.50	98.89		surprisingly more stable
